In general, EC50 refers to the concentration needed to bring the measured effect to its halfway point.

Our source for the EC50 values is publication PMC9932091, “Two odorant receptors regulate 1-octen-3-ol induced oviposition behavior in the oriental fruit fly” (Communications Biology, 2023).

The target in the assay is T1, BdorOR13a/BdorOrco (Bactrocera dorsalis, UniProt A0A0G2UKH1).
T1 construct: gene OR13a; full-length 441-residue OR co-expressed with BdorOrco; pcDNA3.1(+) with mCherry reporter in HEK 293 cells (also pT7Ts in Xenopus oocytes); with Odorant receptor coreceptor
T1 sequence (A0A0G2UKH1 1-441): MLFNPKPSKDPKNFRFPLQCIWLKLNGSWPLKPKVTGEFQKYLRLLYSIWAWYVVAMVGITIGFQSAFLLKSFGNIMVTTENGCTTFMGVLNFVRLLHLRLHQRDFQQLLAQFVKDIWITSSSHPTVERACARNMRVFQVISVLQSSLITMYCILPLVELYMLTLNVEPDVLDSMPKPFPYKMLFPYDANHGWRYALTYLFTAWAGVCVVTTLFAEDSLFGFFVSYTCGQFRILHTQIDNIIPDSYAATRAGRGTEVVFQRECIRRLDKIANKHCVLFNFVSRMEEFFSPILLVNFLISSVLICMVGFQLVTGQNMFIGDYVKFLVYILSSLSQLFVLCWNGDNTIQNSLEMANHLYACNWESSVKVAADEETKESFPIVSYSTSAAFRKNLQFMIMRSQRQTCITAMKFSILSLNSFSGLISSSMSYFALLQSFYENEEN
T1 sequence (B2Z9Z0 1-473 partner): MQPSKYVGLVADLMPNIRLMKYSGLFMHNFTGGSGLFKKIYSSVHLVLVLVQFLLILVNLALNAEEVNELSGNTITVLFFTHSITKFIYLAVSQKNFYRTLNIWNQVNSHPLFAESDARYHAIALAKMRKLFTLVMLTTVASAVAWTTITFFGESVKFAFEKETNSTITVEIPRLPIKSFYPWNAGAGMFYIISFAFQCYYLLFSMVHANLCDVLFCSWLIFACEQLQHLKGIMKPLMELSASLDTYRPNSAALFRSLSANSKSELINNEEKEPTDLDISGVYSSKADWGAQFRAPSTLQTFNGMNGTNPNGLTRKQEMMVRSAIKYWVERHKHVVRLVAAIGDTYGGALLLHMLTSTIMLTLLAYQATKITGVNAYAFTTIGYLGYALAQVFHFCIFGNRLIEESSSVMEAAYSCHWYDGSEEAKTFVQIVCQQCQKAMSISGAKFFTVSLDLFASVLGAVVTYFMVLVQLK
The assay can be described thus: calcium imaging (Fluo-4 AM), HEK […] cells. The class given is cell-based.

The structures appear in SMILES notation.

On to `C=CC(O)CCCCC` (stereo not shown) [1-octen-3-ol], for which the EC50 is 11.3 µM.
